Type in all cases: functional
In one test the test system is L1210. The test can be described thus: Cytotoxicity against mouse L1210 cells. The conditions noted are these: read-out: ED50 (the source's name).
Test [1] is described as follows: Growth inhibition of human NCI60 cells.
The test system of the next test is P388. Description: Cytotoxicity against mouse P388 cells. The conditions noted are these: read-out: ED50 (the source's name).

The structures appear in SMILES notation. Values after ≈ are worked out from the molar mass of the structure shown. Where a SMILES comes first, the peptide text is derived from it.

For the molecule `CC(C)C[C@@H]1NC(=O)[C@@H]2CCCN2C(=O)[C@H](C(C)C)NC(=O)[C@H](Cc2c[nH]c3ccccc23)NC(=O)[C@@H]2CCCN2C(=O)[C@H](CC(C)C)NC(=O)[C@@H]2CCCN2C(=O)[C@H]([C@@H](C)O)NC1=O` [HYMENAMIDE H] (cyclo(LPWVPLTP)), the EC50 in the test on L1210 came to 6.3 µg/mL (≈ 6.97 µM). The same measure, in the same setting: as for `CC(C)[C@@H]1NC(=O)[C@H](CCCCN)NC(=O)[C@H](Cc2c[nH]c3ccccc23)NC(=O)[C@H](Cc2ccccc2)NC(=O)[C@H](CC(=O)O)NC(=O)[C@H](Cc2ccc(O)cc2)NC(=O)[C@@H]2CCCN2C(=O)[C@H](Cc2ccc(O)cc2)NC1=O` [HYMENAMIDE J] (cyclo(DFWKVYPY)), the figure is 2.6 µg/mL (≈ 2.37 µM).

Take `CC[C@H](C)[C@@H]1NC(=O)[C@H](Cc2ccccc2)NC(=O)[C@@H]2CCCN2C(=O)[C@H](Cc2ccccc2)NC(=O)[C@@H]2CCCN2C(=O)[C@H](CCC(N)=O)NC(=O)[C@@H]2CCCN2C(=O)[C@H](Cc2ccccc2)NC1=O` [PHAKELLI STATIN 11] (cyclo(FIFPQPFP)): halving of growth in test [1] (GI50) required 132 nM. The EC50 with P388 is 0.2 µg/mL (≈ 0.205 µM). The matching figures for `CC[C@H](C)[C@@H]1NC(=O)[C@@H]2CCCN2C(=O)[C@H]([C@@H](C)O)NC(=O)[C@H](CC(C)C)NC(=O)[C@@H]2CCCN2C(=O)[C@H](C(C)C)NC(=O)[C@H](Cc2ccc(O)cc2)NC(=O)[C@@H]2CCCN2C1=O` [PHAKELLISTATIN 10] (cyclo(IPYVPLTP)): 790 nM and 2.1 µg/mL (≈ 2.38 µM).

A word on the GI50: it is the concentration that inhibits growth by half.

These data come from ChEMBL document CHEMBL1159266, “Antineoplastic agents, 325. Isolation and structure of the human cancer cell growth inhibitory cyclic octapeptides phakellistatin 10 and 11 from Phakellia sp” (1995).
